A value given as a limit tells only on which side of the number the result lay.

The subject of the experiment is G401 cells. The experiment is described as follows: G401 ELISA test. As to conditions: Homo sapiens, G-401; G401 cells treated with compounds for 72 hours; ELISA detecting K27 and H3; read-out: G401_ELISA IC50. It is filed as cell-based. The protocol: • Plate Reader: Envision (Perkinelmner); plate shaker: IKA MTS 2/4; plate Washer: BioTek microplate wisher 405 select; Cell counter: Counterstar (Ruiyu-biotech); Cell culture incubator: MCO-15AC (ThermoFisher); Pipette: BioHit Multichannel. Pipette: 0.2-10 μL, 10-300 μL, 50-1200 μL; Centrifuge: Thermo Centrifuge ST 40R; Pure water system: Millipore Milli-Q Reference system; Refrigerator: Haier −80 degree, −20 degree, and 4-degree refrigerators; cell cryopreservation box: Mr. Frosty™ Gradient Cooling Box Cat #5100-0001
• McCoys 5A (Modified) culture medium (ATCC); FBS (Gibco); 0.25% Trypsin/EDTA (Gibco); PBS (Hyclone); Penicillin/Streptomycin(100×) (Gibco); DMSO (Sigma); 384 cell culture plate (Corning); 384 detection plate (Greiner); 96 well plate (compound dilution) (Haimen, Qunchao); T75 Cell Culture Bottle (Corning)
G401 cells were seeded in a 384-well cell culture plate and incubated overnight at 37° C. in a 5% CO2 cell culture incubator, after which the cells were treated with compounds of different concentrations for 72 hours. The 384-well cell culture plate was taken out and upside down in a centrifuge to centrifugeat 300 rpm for 1 minute. After centrifugation, the 384-well cell culture plate was washed twice with PBS, added with lysis solution and lysed for 60 minutes. Then neutralization buffer was added for mixing and incubation was continued for 30 minutes. 20 ul (for detecting K27) and 10 ul (for detecting H3) of cell lysate were extracted from the 384-well cell culture plate and transferred to a 384 ELISA detection plate and incubate overnight at 4° C. The next day, the 384 ELISA plate was taken out and washed 5 times with TBST in a microplate washer. Then, the plate was added with a blocking solution and sealed at room temperature for 1 hour. The blocking solution was discarded and the primary antibody was added and then the plate was incubated at room temperature for 1 hour. After incubation, the plate was washed with TBST 5 times in a microplate washer, then added with secondary antibody and incubated at room temperature for 1 hour. After incubation, the plate was washed with TBST 5 times in a microplate washer, and finally added with color developer for color development. The plate was read with Envision plate reader. The obtained data was converted into inhibition rate using the following calculation method: % Inhibition rate=100−100*(compound absorbance−positive control absorbance)/(negative control absorbance−positive control absorbance), and then the inhibition rate data was subjected to curve fitting using the “logarithmic (inhibitor) and reaction-variable slope (four parameters)” model in GraphPad Prism 5 software.
The inhibition rate of the compound was calculated as follows: […]
The compounds of the present invention were tested according to the above experimental method, and some results were shown in Table 3. The test results were classified by A, B, and C, wherein A represents IC50≤0.1 uM; B represents 0.1 uM<IC50≤1 uM; C represents IC50>1 uM
In general terms: In an ELISA, binding on a coated surface is turned into a signal by an enzyme label.
On to `COc1nccc2ccc(Nc3ccc([C@H](C)Nc4ncc(CC(=O)NC5CC(F)(F)C5)cn4)cc3F)nc12` [PA216], for which the IC50 was in the range of 100 to 1000 nM.

With `COc1nccc2ccc(Nc3ccc(CNc4ncc(CC(=O)N5CCC(O)C5)cn4)cc3F)nc12` (stereo not shown) [PA232], the IC50 lay in the range of 100 to 1000 nM.

On to `COc1cccc2ccc(Nc3ccc(CNc4ncc(CC(=O)NC5COC5)cn4)cc3F)nc12` [PA197], for which the IC50 was no more than 100 nM.

`COc1nccc2ccc(Nc3ccc([C@H](C)Nc4ncc(C(C)NC5CS(=O)(=O)C5)cn4)cc3F)nc12` (stereo partly shown) [PA163]: the IC50 is no more than 100 nM.

Regarding `COc1nccc2ccc(Nc3ccc([C@H](C)Nc4ncc(CC(=O)N(CCC#N)C5COC5)cn4)cc3F)nc12` [PA185], the IC50 was no more than 100 nM.

Take `CC(C(=O)NC1COC1)c1cnc(NCc2ccc(Nc3ccc4ccnc(Cl)c4n3)cc2)nc1` (stereo not shown) [PA044]: the IC50 lay in the range of 100 to 1000 nM.

For the molecule `Cc1ccc2ccc(NC34CCC(C(C)Nc5ncc(CC(=O)NC6COC6)cn5)(CC3)CC4)nc2c1Cl` (stereo not shown) [PA183], the IC50 was no more than 100 nM.

On to `COc1nccc2ccc(NC34CCC([C@H](C)Nc5ncc(C(C)C(=O)NC6COC6)cn5)(CC3)CC4)nc12` (stereo partly shown) [PA168], for which the IC50 is no more than 100 nM.

As for `COc1nccc2ccc(Nc3ccc(CNc4ncc(CCNC5COC5)cn4)cc3)nc12` [PA211], the IC50 lay within 100 to 1000 nM.

`CCN(Cc1cnc(N[C@@H](C)c2ccc(Nc3ccc4ccc(C)c(Cl)c4n3)c(F)c2)nc1)C1CS(=O)(=O)C1` [PA267]: the IC50 was no more than 100 nM.

As for `C[C@H](Nc1ncc(CNC2CS(=O)(=O)C2)cn1)c1ccc(Nc2ccc3ccnc(Cl)c3n2)c(F)c1` (single isomer, unassigned) [PA248], the IC50 is greater than 1000 nM.

Consider `COc1nccc2ccc(Nc3ccc([C@H](C)Nc4ncc(C=CC5CCS(=O)(=O)CC5)cn4)cc3F)nc12` [PA213], for which the IC50 lay in the range of 100 to 1000 nM.

Consider `COc1nccc2ccc(Nc3ccc(CNc4ncc(CC(=O)OC(C)(C)C)cn4)cc3)nc12` [PA007], for which the IC50 was greater than 1000 nM.

Regarding `COc1nccc2ccc(Nc3ccc([C@H](C)Nc4ncc(CNC5CC(F)(F)C5)cn4)cc3F)nc12` [PA201], the IC50 was no more than 100 nM.

`COc1nccc2ccc(Nc3ccc(CNc4ncc(N5CCC(OC)C5)cn4)cc3F)nc12` (stereo not shown) [PA244]: the IC50 is greater than 1000 nM.

Take `COc1nccc2ccc(Nc3ccc([C@H](C)Nc4ncc(CN5CC(C#N)C5)cn4)cc3F)nc12` [PA173]: the IC50 is no more than 100 nM.

Regarding `COc1nccc2ccc(Nc3ccc(CNc4ncc(CNCc5ccno5)cn4)cc3F)nc12` [PA258], the IC50 is no more than 100 nM.

Turning to `N#Cc1nccc2ccc(Nc3ccc(CNc4ncc(CC(=O)NC5COC5)cn4)cc3)nc12` [PA074], the IC50 was greater than 1000 nM.

For the molecule `COc1nccc2ccc(Nc3ccc(C(C)Nc4ncc(CC(=O)NC5COC5)cn4)cc3)nc12` (racemic) [PA039, 2-(2-((1-(4-((8-methoxy-1,7-naphthyridin-2-yl)amino)phenyl)ethyl)amino)pyrimidin-5-yl) acetic acid N-(oxetan-3-yl) acetamide], the IC50 fell in the range of 100 to 1000 nM.

For `COc1nccc2ccc(Nc3ccc([C@H](C)Nc4ncc(C(N)C(=O)NC5COC5)cn4)cc3F)nc12` (stereo partly shown) [PA205], the IC50 is no more than 100 nM.

With `COc1nccn2cc(Nc3ccc(CNc4ncc(CC(=O)NC5COC5)cn4)cc3)nc12` [PA253], the IC50 is greater than 1000 nM.

As for `COc1nccc2ccc(Nc3ccc(CNc4ncc(CC(=O)NC5COC5)cn4)cc3)cc12` [PA066], the IC50 was greater than 1000 nM.

Regarding `COc1nccc2ccc(Nc3ccc([C@H](C)Nc4ncc(N5CC(CC#N)C5)cn4)cc3F)nc12` [PA199], the IC50 is no more than 100 nM.

For the molecule `COc1nccc2ccc(Nc3ccc([C@H](C)Nc4ncc(/C=C/C5CCS(=O)(=O)CC5)cn4)cc3F)nc12` [PA210], the IC50 lay in the range of 100 to 1000 nM.

Take `C[C@H](Nc1ncc(CNCc2cnoc2)cn1)C12CCC(Nc3ccc4ccnc(Cl)c4n3)(CC1)CC2` [PA188]: the IC50 is no more than 100 nM.

For the molecule `C[C@H](Nc1ncc(CNCCC#N)cn1)C12CCC(Nc3ccc4ccnc(Cl)c4n3)(CC1)CC2` [PA170], the IC50 is no more than 100 nM.

Take `COc1nccc2ccc(Nc3ccc([C@H](C)Nc4ncc(CNC5C[S+]([O-])C5)cn4)cc3F)nc12` (stereo partly shown) [PA175]: the IC50 is no more than 100 nM.

On to `COc1nccc2ccc(Nc3ccc([C@H](C)Nc4ncc(CC(=O)NC5COC5)cn4)cc3F)nc12` [PA193], for which the IC50 was no more than 100 nM.

In the case of `COc1nccc2ccc(Nc3ccc([C@H](C)Nc4ncc(CN5CCN(S(C)(=O)=O)CC5)cn4)cc3F)nc12` [PA189], the half-inhibitory concentration (IC50) was no more than 100 nM.

As to `O=C(Cc1cnc(NCc2ccc(Nc3ccc4c(Cl)nccc4n3)cc2)nc1)NC1COC1` [PA243], the IC50 is greater than 1000 nM.

In the case of `COc1nccc2ccc(Nc3ccc([C@H](C)Nc4ncc(CNC5CCS(=O)(=O)C5)cn4)cc3F)nc12` (stereo partly shown) [PA182], the IC50 was no more than 100 nM.

On to `COc1nccc2ccc(Nc3ccc([C@H](C)Nc4ccc(NC(=O)NC5COC5)cn4)cc3F)nc12` [PA238], for which the IC50 was in the range of 100 to 1000 nM.

In the case of `COc1nccc2ccc(Nc3ccc(CNc4ncc(CNCCO)cn4)cc3F)nc12` [PA242], the IC50 is greater than 1000 nM.

With `COc1nccc2ccc(Nc3ccc([C@H](C)Nc4ncc(CNCC5CC(F)(F)C5)cn4)cc3F)nc12` [PA240], the IC50 is 100 to 1000 nM.

Take `CNc1nccc2ccc(Nc3ccc(CNc4ncc(CC(=O)NC5COC5)cn4)cc3)nc12` [PA068]: the IC50 was in the range of 100 to 1000 nM.

`O=C(Cc1cnc(NCc2ccc(Nc3ccc4ccncc4n3)cc2)nc1)NC1COC1` [PA048]: the IC50 was greater than 1000 nM.

`O=C(Cc1cnc(NCC23CCC(Nc4ccc5cccc(Cl)c5n4)(CC2)CC3)nc1)NC1COC1` [PA263]: the IC50 was no more than 100 nM.

Consider `C[C@H](Nc1ncc(C=CC2CS(=O)(=O)C2)cn1)C12CCC(Nc3ccc4ccnc(Cl)c4n3)(CC1)CC2` [PA164], for which the IC50 was no more than 100 nM.

Turning to `C[C@@H](Nc1ncc(CC(=O)NC2COC2)cn1)C12CCC(Nc3ccc4ccnc(Cl)c4n3)(CC1)CC2` [PA209], the IC50 is 100 to 1000 nM.

Take `COc1nccc2ccc(Nc3ccc(CNc4ncc(CNCC5CCOCC5)cn4)cc3F)nc12` [PA252]: the IC50 was greater than 1000 nM.

As for `COc1nccc2ccc(Nc3ccc(CNc4ncc(CC(N)=O)cn4)cc3F)nc12` [PA231], the IC50 lay within 100 to 1000 nM.

For the molecule `COc1nccc2ccc(Nc3ccc([C@H](C)Nc4ncc([C@H](C)C(=O)NC5COC5)cn4)cc3F)nc12` [PA186], the IC50 is no more than 100 nM.

As to `COc1nccc2ccc(Nc3ccc([C@H](C)Nc4ncc(CC(=O)NC5COC5)cn4)cc3)nc12` [PA061, 2-(2-((1-(4-((8-methoxy-1,7-naphthyridin-2-yl)amino)phenyl)ethyl)amino)pyrimidin-5-yl) acetic acid N-(oxetan-3-yl) acetamide], the IC50 is no more than 100 nM.

For the molecule `O=C(Cc1cnc(NC(CO)C23CCC(Nc4ccc5ccnc(Cl)c5n4)(CC2)CC3)nc1)NC1COC1` (stereo not shown) [PA264], the IC50 is no more than 100 nM.

In the case of `C[C@H](Nc1ncc(C(O)C(=O)NC2COC2)cn1)C12CCC(Nc3ccc4ccnc(Cl)c4n3)(CC1)CC2` (stereo partly shown) [PA174], the IC50 is no more than 100 nM.

Regarding `C[C@H](Nc1ncc(C(NC2CS(=O)(=O)C2)C(=O)OC(C)(C)C)cn1)C12CCC(Nc3ccc4ccnc(Cl)c4n3)(CC1)CC2` (stereo partly shown) [PA257], the IC50 was no more than 100 nM.

As for `COc1nccc2ccc(Nc3ccc(CNc4ncc(CC(=O)NC5COC5)cn4)cn3)nc12` [PA070], the IC50 was greater than 1000 nM.

Regarding `COc1nccc2ccc(Nc3ccc(CNc4ncc(CNCc5cnn(C)c5)cn4)cc3F)nc12` [PA249], the IC50 is greater than 1000 nM.

With `Cn1ccc2ccc(Nc3ccc(CNc4ncc(CC(=O)NC5COC5)cn4)cc3)nc2c1=O` [PA255], the half-inhibitory concentration (IC50) was greater than 1000 nM.

For orientation: IC50 means the concentration that inhibits the measured activity by half.

Values taken from patent US20260015352A1, “METHYLTRANSFERASE INHIBITOR AND USE THEREOF” (CYTOSINLAB THERAPEUTICS CO., LTD., priority 2022, published 2026).
